Like-named read-outs stand apart in the source and are kept apart here.
Experiments:
GnRH receptor [1] = target: T1, GnRH receptor (Homo sapiens, UniProt P30968); assay: GnRH receptor-membrane binding assay ([125I]-D-Trp6-LHRH displacement); design: purchased PerkinElmer; host or cells: CHO-K1 (ATCC CCL-61), stably transfected; settings: for inhibition at 0.01 µM: read-out: GnRH binding inhibition (%) at 10 nM; for inhibitory effect compared with compounds comprising alkyl group (Examples 1-2 and 1-3): benzyl versus alkyl substituent at spiro-piperidine, comment on Table 10 (binding and NFAT reporter)
T1 sequence (P30968 1-328): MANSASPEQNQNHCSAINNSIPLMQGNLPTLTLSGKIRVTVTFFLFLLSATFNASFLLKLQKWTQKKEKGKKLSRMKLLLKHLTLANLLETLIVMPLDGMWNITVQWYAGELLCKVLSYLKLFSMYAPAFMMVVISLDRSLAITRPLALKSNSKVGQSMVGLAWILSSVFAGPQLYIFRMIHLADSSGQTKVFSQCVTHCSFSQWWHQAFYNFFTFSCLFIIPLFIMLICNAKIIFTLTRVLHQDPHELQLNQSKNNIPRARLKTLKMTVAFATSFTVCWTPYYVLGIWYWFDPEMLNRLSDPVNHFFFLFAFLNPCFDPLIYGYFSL
Method: A GnRH receptor membrane binding assay was carried out for the compounds of the present invention by employing a membrane substrate (PerkinElmer) isolated from CHO-K1 cells (ATCC CCL-61) stably transfected with a GnRH receptor.
A reaction was initiated by the addition of a 0.2 nM [^125I]-labeled D-Trp^6-LHRH peptide and the GnRH receptor membrane substrate at a density of 1 μg/250 μL/well, together with the inventive compounds at various concentrations ranging from 0.1 nM to 100 nM, to a binding buffer composed of 25 mM Hepes (pH 7.4), 10 mM MgCl2, 1 mM CaCl2 and 0.5% BSA (pH 7.4). The reaction mixture was incubated at 27° C. for 1 hr and subjected to vacuum suction for binding to a filter (Fitermat A, PerkinElmer). The filter was washed several times with 50 mM tris-HCl buffer to terminate the reaction. The radioactivity binding to the filter was measured using MicroBeta2 TriLux (PerkinElmer). The binding inhibition rate (%) of the inventive compounds were analyzed on the basis of the measured radioactivity, and IC50 value was calculated using a non-linear least square regression method with Prism (GraphPad, Inc.).

GnRH receptor [2] = target: T1, GnRH receptor; assay: NFAT reporter (luciferase) gene expression assay for antagonistic effect on GnRH receptor, HEK293 transformed with pcDNA3.1/GnRH receptor and pGL4/NFAT promoter; format: cell-based
Method: For evaluation of antagonistic effect on GnRH receptor, double-transformed cell line, HEK293 (ATCC CRL-1573) which is transformed with pcDNA3.1/GnRH receptor and pGL4/NFAT promoter, was employed.
To conduct a GnRH receptor assay, the HEK293 (ATCC CRL-1573) cell line was diluted at a density of 3×10^4 cells/well in a DMEM medium supplemented with 10% FBS, 1% Penicillin-Streptomycin, and plated into polylysine-coated 96-well plates having a white-clear bottom, followed by incubating the cells at 37° C. for 24 hrs. Then, the medium was changed with a serum-free DMEM medium (1% Penicillin-Streptomycin), and the cells were incubated for an additional 16 hrs before use.
Test compounds were added to the wells in an amount of 1 μM to 0.01 nM, respectively, and further incubated for 1 hr. Then, leuprolide acetate as a ligand (Sigma) was added to the wells in an amount of 1 nM or 20 nM and subjected to an additional incubation for 6 hrs. The reagent of Luciferase assay system (Promega, Cat. No. E1500) was added to the wells and luminescence was measured using a luminometer (PerkinElmer, VICTOR3™, 1420 Multilabel Counter). The compound of formula 10b described in J. Med. Chem. 2008, 51, 7478 was used as a comparative compound.
Each sample was analyzed at a 6-dose level and the NFAT reporter inhibitory rate (%) of the inventive compounds was calculated according to the following equation based on the measured luminescence. Inhibition (%)={1−(compound−negative control)/(positive control−negative control)}×100 [Equation]
wherein, positive control is GnRH treated group; and negative control is non-treated group.

[3] = compound at 10 nM, 0.2 nM [125I]-D-Trp6-LHRH, CHO-K1 GnRH receptor membrane
[4] = compound at 100 nM, leuprolide acetate as ligand, HEK293, read-out: NFAT reporter activity inhibition (%) at 100 nM
[5] = HEK293, read-out: NFAT reporter activity inhibition (%) at 100 nM

`N[C@@H](Cn1c(=O)c2c(n(Cc3c(F)cccc3F)c1=O)COC21CCN(Cc2ccc(C(F)(F)F)o2)CC1)c1ccccc1` [Example 1-42, (R)-3-(2-amino-2-phenylethyl)-1-(2,6-difluorobenzyl)-1′-((5-(trifluoromethyl)furan-2-yl)methyl)-1H-spiro[furo[3,4-d]pyrimidine-5,4′-piperidine]-2,4(3H,7H)-dione] gave an inhibition at 0.01 µM (GnRH receptor [1]; [3]) of 93.9% and an inhibition at 0.1 µM (GnRH receptor [2]; [4]) of 82%.
For `Cc1ccccc1CN1CCC2(CC1)OCc1c2c(=O)n(C[C@H](N)c2ccccc2)c(=O)n1Cc1c(F)cccc1C(F)(F)F` [Example 1-26, (R)-3-(2-amino-2-phenylethyl)-1-(2-fluoro-6-(trifluoromethyl)benzyl)-1′-(2-methylbenzyl)-1H-spiro[furo[3,4-d]pyrimidine-5,4′-piperidine]-2,4(3H,7H)-dione], the inhibition at 0.01 µM (GnRH receptor [1]; [3]) was 102% and the inhibition at 0.1 µM (GnRH receptor [2]; [4]) was 22%.
Work on `N[C@@H](Cn1c(=O)c2c(n(Cc3c(F)cccc3C(F)(F)F)c1=O)COC21CCN(Cc2ccc(Cl)cc2)CC1)c1ccccc1` [Example 1-51, (R)-3-(2-amino-2-phenylethyl)-1′-(4-chlorobenzyl)-1-(2-fluoro-6-(trifluoromethyl)benzyl)-1H-spiro[furo[3,4-d]pyrimidine-5,4′-piperidine]-2,4(3H,7H)-dione] yielded an inhibition at 0.01 µM (GnRH receptor [1]; [3]) of 95.6% and an inhibition at 0.1 µM (GnRH receptor [2]; [4]) of 30%.
For `N[C@@H](Cn1c(=O)c2c(n(Cc3c(F)cccc3C(F)(F)F)c1=O)CCC21CCN(Cc2ccc(C(F)(F)F)o2)CC1)c1ccccc1` [Example 3-5, (R)-3-(2-amino-2-phenylethyl)-1-(2-fluoro-6-(trifluoromethyl)benzyl)-1′-((5-(trifluoromethyl)furan-2-yl)methyl)-6,7-dihydrospiro[cyclopenta[d]pyrimidine-5,4′-piperidine]-2,4(1H,3H)-dione], the inhibition at 0.01 µM (GnRH receptor [1]; [3]) was 101% and the inhibition at 0.1 µM (GnRH receptor [2]; [4]) was 99%.
In the case of `COCCN1CCC2(CC1)OCc1c2c(=O)n(C[C@H](N)c2ccccc2)c(=O)n1Cc1c(F)cccc1C(F)(F)F` [Example 1-2, (R)-3-(2-amino-2-phenylethyl)-1-(2-fluoro-6-(trifluoromethyl)benzyl)-1′-(2-methoxyethyl)-1H-spiro[furo[3,4-d]pyrimidine-5,4′-piperidine]-2,4(3H,7H)-dione], the inhibition at 0.01 µM (GnRH receptor [1]; [3]) is reported as 50.8%.
In the case of `COc1cccc(CN2CCC3(CC2)OCc2c3c(=O)n(C[C@H](N)c3ccccc3)c(=O)n2Cc2c(F)cccc2C(F)(F)F)c1` [Example 1-14, (R)-3-(2-amino-2-phenylethyl)-1-(2-fluoro-6-(trifluoromethyl)benzyl)-1′-(3-methoxybenzyl)-1H-spiro[furo[3,4-d]pyrimidine-5,4′-piperidine]-2,4(3H,7H)-dione], the inhibition at 0.01 µM (GnRH receptor [1]) is reported as 96% and the inhibition at 0.1 µM (GnRH receptor [2]; [5]) is reported as 34%.
Compound `Cc1cccc(C(Cn2c(=O)c3c(n(Cc4c(F)cccc4C(F)(F)F)c2=O)COC32CCN(Cc3ccc(C(F)(F)F)o3)CC2)NCCCC(=O)O)n1` (stereo not drawn) [Example 36, 4-((2-(1-(2-fluoro-6-(trifluoromethyl)benzyl)-2,4-dioxo-1′-((5-(trifluoromethyl)furan-2-yl)methyl)-1H-spiro[furo[3,4-d]pyrimidine-5,4′-piperidin]-3(2H,4H,7H)-yl)-1-(6-methylpyridin-2-yl)ethyl)amino)butanoic acid] has an inhibition at 0.01 µM (GnRH receptor [1]; [3]) of 88% and an inhibition at 0.01 µM (GnRH receptor [2]; compound at 10 nM, leuprolide acetate as ligand, HEK293) of 88.2%.
Work on `Cc1ccc(CN2CCC3(CC2)OCc2c3c(=O)n(C[C@H](N)c3ccccc3)c(=O)n2Cc2c(F)cccc2C(F)(F)F)cc1` [Example 1-50, (R)-3-(2-amino-2-phenylethyl)-1-(2-fluoro-6-(trifluoromethyl)benzyl)-1′-(4-methylbenzyl)-1H-spiro[furo[3,4-d]pyrimidine-5,4′-piperidine]-2,4(3H,7H)-dione] yielded an inhibition at 0.01 µM (GnRH receptor [1]) of 96.3% and an inhibition at 0.1 µM (GnRH receptor [2]; [5]) of 17%.
`N[C@@H](Cn1c(=O)c2c(n(Cc3c(F)cccc3C(F)(F)F)c1=O)COC21CCN(Cc2ccccc2F)CC1)c1ccccc1` [Example 1-29, (R)-3-(2-amino-2-phenylethyl)-1-(2-fluoro-6-(trifluoromethyl)benzyl)-1′-(2-fluorobenzyl)-1H-spiro[furo[3,4-d]pyrimidine-5,4′-piperidine]-2,4(3H,7H)-dione] showed an inhibition at 0.01 µM (GnRH receptor [1]; [3]) of 104% and an inhibition at 0.1 µM (GnRH receptor [2]; [4]) of 58%.
In the case of `CC(C)(C)CN1CCC2(CC1)OCc1c2c(=O)n(C[C@H](N)c2ccccc2)c(=O)n1Cc1c(F)cccc1C(F)(F)F` [Example 1-3, (R)-3-(2-amino-2-phenylethyl)-1-(2-fluoro-6-(trifluoromethyl)benzyl)-1′-neopentyl-1H-spiro[furo[3,4-d]pyrimidine-5,4′-piperidine]-2,4(3H,7H)-dione], the inhibition at 0.1 µM (GnRH receptor [2]; [5]) is reported as 15%.
`N#Cc1cccc(CN2CCC3(CC2)OCc2c3c(=O)n(C[C@H](N)c3ccccc3)c(=O)n2Cc2c(F)cccc2C(F)(F)F)c1` [Example 1-15, (R)-3-((3-(2-amino-2-phenylethyl)-1-(2-fluoro-6-(trifluoromethyl)benzyl)-2,4-dioxo-2,3,4,7-tetrahydro-1H-spiro[furo[3,4-d]pyrimidine-5,4′-piperidine]-1′-yl)methyl)benzonitrile] was tested, and the “inhibitory effect compared with compounds comprising alkyl group (Examples 1-2 and 1-3)” value (GnRH receptor [1]) was “improved inhibitory effect”, the inhibition at 0.01 µM (GnRH receptor [1]) was 91.3% and the inhibition at 0.1 µM (GnRH receptor [2]; [5]) was 67%.
`N[C@@H](Cn1c(=O)c2c(n(Cc3c(F)cccc3C(F)(F)F)c1=O)COC21CCN(Cc2cccc3nonc23)CC1)c1ccccc1` [Example 1-25, (R)-3-(2-amino-2-phenylethyl)-1′-(benzo[c][1,2,5]oxadiazol-4-ylmethyl)-1-(2-fluoro-6-(trifluoromethyl)benzyl)-1H-spiro[furo[3,4-d]pyrimidine-5,4′-piperidine]-2,4(3H,7H)-dione] gave an inhibition at 0.01 µM (GnRH receptor [1]; [3]) of 91.3% and an inhibition at 0.1 µM (GnRH receptor [2]; [4]) of 56%.
For `N[C@@H](Cn1c(=O)c2c(n(Cc3c(F)cccc3C(F)(F)F)c1=O)COC21CCN(Cc2cocn2)CC1)c1ccccc1` [Example 1-63, (R)-3-(2-amino-2-phenylethyl)-1-(2-fluoro-6-(trifluoromethyl)benzyl)-1′-(oxazol-4-ylmethyl)-1H-spiro[furo[3,4-d]pyrimidine-5,4′-piperidine]-2,4(3H,7H)-dione], the inhibition at 0.01 µM (GnRH receptor [1]; [3]) was 88.6% and the inhibition at 0.1 µM (GnRH receptor [2]; [4]) was 18%.
`COC(=O)c1cccc(CN2CCC3(CC2)OCc2c3c(=O)n(C[C@H](N)c3ccccc3)c(=O)n2Cc2c(F)cccc2C(F)(F)F)c1` [Example 1-19, (R)-methyl 3-((3-(2-amino-2-phenylethyl)-1-(2-fluoro-6-(trifluoromethyl)benzyl)-2,4-dioxo-2,3,4,7-tetrahydro-1H-spiro[furo[3,4-d]pyrimidine-5,4′-piperidin]-1′-yl)methyl)benzoate] was tested, and the “inhibitory effect compared with compounds comprising alkyl group (Examples 1-2 and 1-3)” value (GnRH receptor [1]) was “improved inhibitory effect”, the inhibition at 0.01 µM (GnRH receptor [1]; [3]) was 97.5% and the inhibition at 0.1 µM (GnRH receptor [2]; [4]) was 89%.
`CONC(=O)Nc1cccc(C(Cn2c(=O)c3c(n(Cc4c(F)cccc4C(F)(F)F)c2=O)COC32CCN(Cc3ccc(C(F)(F)F)o3)CC2)NC(=O)OC(C)(C)C)c1` (stereo not drawn) [Example 63, tert-butyl (2-(1-(2-fluoro-6-(trifluoromethyl)benzyl)-2,4-dioxo-1′-((5-(trifluoromethyl)furan-2-yl)methyl)-1H-spiro[furo[3,4-d]pyrimidine-5,4′-piperidin]-3(2H,4H,7H)-yl)-1-(3-(3-methoxyureido)phenyl)ethyl)carbamate] showed an inhibition at 0.01 µM (GnRH receptor [1]; [3]) of 89.8% and an inhibition at 0.1 µM (GnRH receptor [2]; [4]) of 100%.

Reference: patent publication US9481684B2, “Gonadotropin releasing hormone receptor antagonists, method for the preparation thereof and pharmaceutical composition comprising the same” (SK CHEMICALS CO., LTD., priority 2012, dated 2016)
